According to patent US20230263822A1, “MODULATION OF FACTOR 11 EXPRESSION” (Ionis Pharmaceuticals, Inc., priority 2008, published 2023):
Values joined by “and” are separate entries in the source; they are usually repeats but may differ in a detail not shown here. Equal entries are not always repeated. Strand notation (5' to 3'): a small letter for the sugar, then the base; units joined by * are phosphorothioate-linked, units joined directly phosphodiester-linked; [ ] holds rarer units or linkages, { } end groups; capitals alone tell only the bases. e = 2'-O-(2-methoxyethyl) (MOE); [5mC] = 5-methylcytosine; d = 2'-deoxy (DNA)

Tests used:
human Factor 11 mRNA [1] = assay: Dose-dependent inhibition of human Factor 11 in HepG2 cells, lipofectin 2.34-75 nM (Example 5); format: cell-based; conditions: for percent inhibition of human Factor 11 mRNA relative to untreated control cells: ~16 hours
Procedure: (§1) Cells were plated at a density of 10,000 cells per well and transfected using lipofectin reagent with 2.34 nM, 4.69 nM, 9.375 nM, 18.75 nM, 37.5 nM, and 75 nM concentrations of antisense oligonucleotide, as specified in Table 11. After a treatment period of approximately 16 hours, RNA was isolated from the cells and human Factor 11 mRNA levels were measured by quantitative real-time PCR. Human Factor 11 primer probe set RTS 2966 was used to measure mRNA levels. Factor 11 mRNA levels were adjusted according to total RNA content, as measured by RIBOGREEN. Results are presented as percent inhibition of human Factor 11, relative to untreated control cells.

human Factor 11 mRNA [2] = assay: Dose-dependent inhibition of human Factor 11 in HepB3 cells, lipofectin (Example 7); format: cell-based; conditions: for percent inhibition of Factor 11 mRNA relative to untreated control cells: ~16 hours
Procedure: as §1, with “4,000” for “10,000”, “2.3” for “2.34”, “4.7” for “4.69”, “9.4” for “9.375”, “14.” for “11.”, “of” for “of human”

human Factor 11 mRNA [3] = assay: Antisense inhibition of human Factor 11 in HepG2 cells by microwalk gapmers, lipofectin, 75 nM (Example 3); format: cell-based
How it was run: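 HepG2 cells (10,000/well) were transfected via lipofectin with 75 nM 20-mer MOE gapmers (phosphorothioate, 5-methyl-C) for about 24 h. Factor 11 mRNA was measured by qRT-PCR, normalized to RIBOGREEN total RNA, and given as percent inhibition versus untreated cells.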

[4] = parameters: species or system Sprague-Dawley rats; conditions: rat, in vivo
Procedure: Three days after the last dose, the rats were sacrificed and livers and kidneys were collected for analysis.
The concentration of the full-length oligonucleotide as well as the total oligonucleotide concentration (including the degraded form) was measured. The method used is a modification of previously published methods (Leeds et al., 1996; Geary et al., 1999) which consist of a phenol-chloroform (liquid-liquid) extraction followed by a solid phase extraction. An internal standard (ISIS 355868, a 27-mer 2′-O-methoxyethyl modified phosphorothioate oligonucleotide, […], designated herein as SEQ ID NO: 270) was added prior to extraction. […] The results are presented in Tables 77 and 78, expressed as μg/g liver or kidney tissue. Half-lives were then calculated using WinNonlin software ([…]).

[5] = Viscosity of ISIS antisense oligonucleotides, micro-viscometer at 25 °C (Example 47); format: physicochemical; conditions: for Concentration: concentration of the viscosity sample, UV reading at 260 nM at 85° C.; for Viscosity: in water, micro-viscometer at 25° C., at the concentration of the same line
How it was run: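 Oligonucleotide (32-35 mg) was dissolved in 120 μL water by heating at 50° C, and viscosity was measured by micro-viscometer at 25° C. Concentration was checked by UV at 260 nm at 85° C on a dilution in water. Screening cut-off: >40 cP at 165-185 mg/mL.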

[6] = HepG2, lipofectin, ~24 h, gapmers targeted to nucleobases 656 to 704 of SEQ ID NO: 1
[7] = HepG2 cells, lipofectin, gapmers targeted to nucleobases 1275 to 1318 of SEQ ID NO: 1

Row | Substance | IC50 (human Factor 11 mRNA [1]) | percent inhibition of human Factor 11 mRNA relative to untreated control cells (human Factor 11 mRNA [1]; 2.34 nM) | percent inhibition of human Factor 11 mRNA relative to untreated control cells (human Factor 11 mRNA [1]; 4.69 nM) | percent inhibition of human Factor 11 mRNA relative to untreated control cells (human Factor 11 mRNA [1]; 9.375 nM) | percent inhibition of human Factor 11 mRNA relative to untreated control cells (human Factor 11 mRNA [1]; 18.75 nM) | percent inhibition of human Factor 11 mRNA relative to untreated control cells (human Factor 11 mRNA [1]; 37.5 nM) | percent inhibition of human Factor 11 mRNA relative to untreated control cells (human Factor 11 mRNA [1]; 75 nM) | IC50 (human Factor 11 mRNA [2]) | percent inhibition of Factor 11 mRNA relative to untreated control cells (human Factor 11 mRNA [2]; 2.3 nM) | percent inhibition of Factor 11 mRNA relative to untreated control cells (human Factor 11 mRNA [2]; 4.7 nM) | percent inhibition of Factor 11 mRNA relative to untreated control cells (human Factor 11 mRNA [2]; 9.4 nM) | percent inhibition of Factor 11 mRNA relative to untreated control cells (human Factor 11 mRNA [2]; 18.75 nM) | percent inhibition of Factor 11 mRNA relative to untreated control cells (human Factor 11 mRNA [2]; 37.5 nM) | percent inhibition of Factor 11 mRNA relative to untreated control cells (human Factor 11 mRNA [2]; 75 nM) | % inhibition (human Factor 11 mRNA [3]; [6]) | Half-life in the liver and kidney [4] | % inhibition (human Factor 11 mRNA [3]; [7]) | Concentration [5] | Viscosity [5] | % inhibition (human Factor 11 mRNA [3]; HepG2 cells, lipofectin, gapmers targeted to nucleobases 738 to 762 of SEQ ID NO: 1)
1 | 416826 (antisense ATGCCCTTCATGTCTAGGTC; 5-10-5 gapmer, further chemistry not given here) [compound 416826] | 0.015 µM | 15% | 22% | 32% | 54% | 76% | 90% | 0.016 µM | 16% | 28% | 38% | 55% | 64% | 66% | 94% | 13 days | – | – | – | –
2 | 416925 (antisense GGTGCACAGTTTCTGGCAGG; 3-14-3 gapmer chemistry, further chemistry not given here) [compound 416925] | 0.013 µM | 24% | 34% | 45% | 56% | 67% | 72% | 0.012 µM | 26% | 33% | 45% | 59% | 72% | 60% | – | 12 days | 98% | – | – | –
3 | 413482 (antisense GGACGGCATTGGTGCACAGT; 5-10-5 MOE gapmer, further chemistry not given here) [compound 413482] | – | – | – | – | – | – | – | – | – | – | – | – | – | – | – | – | 89% | 172 mg/mL | 16. cP | –
4 | 412224 (antisense GCATTGGTGCACAGTTTCTG; 5-10-5 MOE gapmer, further chemistry not given here) [compound 412224] | – | – | – | – | – | – | – | – | – | – | – | – | – | – | – | – | 93% | 186 mg/mL | 98 cP | –
5 | 412223 (antisense ACAGTTTCTGGCAGGCCTCG; 5-10-5 MOE gapmer, further chemistry not given here) [compound 412223] | – | – | – | – | – | – | – | – | – | – | – | – | – | – | – | – | 85% | 163 mg/mL | 8 cP | –
6 | 416856 (antisense GGCATTGGTGCACAGTTTCT; 5-10-5 gapmer, further chemistry not given here) [compound 416856] | – | – | – | – | – | – | – | – | – | – | – | – | – | – | – | – | 95% | 175 mg/mL | 18 cP | –
7 | 416864 (antisense GGCAGCGGACGGCATTGGTG; 5-10-5 gapmer, further chemistry not given here) [compound 416864] | 0.015 µM | 13% | 34% | 42% | 65% | 68% | 80% | 0.009 µM | 24% | 37% | 42% | 66% | 76% | 63% | – | 13 days | 93% | – | – | –
8 | 416825 (antisense GCCCTTCATGTCTAGGTCCA; 5-10-5 gapmer, further chemistry not given here) [compound 416825] | 0.013 µM | 4% | 22% | 39% | 57% | 79% | 89% | 0.035 µM | 0% | 15% | 34% | 36% | 53% | 59% | 92% | 16 days | – | – | – | –
9 | 412225 (antisense GCAGCGGACGGCATTGGTGC; 5-10-5 MOE gapmer, further chemistry not given here) [compound 412225] | – | – | – | – | – | – | – | – | – | – | – | – | – | – | – | – | 86% | 162 mg/mL | >100 cP | –
10 | 417003 (antisense TGGTGCACAGTTTCTGGCAG; 2-13-5 gapmer chemistry, further chemistry not given here) [compound 417003] | 0.011 µM | 6% | 29% | 48% | 64% | 73% | 82% | 0.017 µM | 11% | 28% | 40% | 40% | 63% | 58% | – | 10 days | 89% | – | – | –
11 | 445522 (antisense eG*e[5mC]*eA*e[5mC]*eA*dG*dT*dT*dT*d[5mC]*dT*dG*dG*e[5mC]*eA*eG*eG*e[5mC]) [compound 445522] | – | – | – | – | – | – | – | – | – | – | – | – | – | – | – | – | – | 173 mg/mL and 174 mg/mL | 63 cP and 58 cP | –
12 | 445531 (antisense eG*eG*e[5mC]*eA*eT*dT*dG*dG*dT*dG*d[5mC]*dA*d[5mC]*eA*eG*eT*eT*eT) [compound 445531] | – | – | – | – | – | – | – | – | – | – | – | – | – | – | – | – | – | 155 mg/mL and 179 mg/mL | 15 cP and 20 cP | –
13 | 412206 (antisense e[5mC]*e[5mC]*eG*eT*eG*d[5mC]*dA*dT*d[5mC]*dT*dT*dT*d[5mC]*dT*dT*eG*eG*e[5mC]*eA*eT) [compound 412206] | – | – | – | – | – | – | – | – | – | – | – | – | – | – | – | – | – | – | – | 93%
